The text below walks through data of patent publication US20030166511A1, “Cardioprotective composition comprising ceruloplasmin and uses thereof” (GESTILAB INC., priority 1999, published 2003).

The conditions of series [1]: cited from earlier work; for concentrations ensuring good antioxidative activity in vitro: in vitro (Atanasiu et al., 1998).
A further series relates to isolated rat hearts. Particulars: isolated rat heart, blood-free model (Chahine et al., 1991; Atanasiu et al, 1995), cited from earlier work.
For series [2] the following is noted: conditions without oxidative stress (Atanasiu et al, 1996); cited from earlier work.
The subject of series [3] is ischemic isolated rat heart. In words: Reperfusion-induced irreversible ventricular fibrillation in isolated rat heart submitted to partial ischemia-reperfusion (Langendorff). To be noted: TRIAD (S2) 0.16×, CP 0.5 μM. The method, then:
All experiments were conformed to rules of the Guide for the care and use of laboratory animals published by the US National Institutes of Health (NIH publication No 85-23, revised 1985). Adult male Wistar rats (225-250 g) were anaesthetized with sodium pentobarbitone intra-peritoneally (0.1 ml/100 g body weight) and then heparinized (500 UI intra-peritoneally). […]
Hearts were perfused for a 10 min control period with KH buffer, and then […] with KH+TRIAD for stabilization. […] At the end of this 10 min arterial occlusion period, reperfusion was initiated by cutting the ligature with a scalpel bled and rhythm disturbances were monitored for 15 min more. Left ventricular pressure and epicardial ECG were continuously monitored before and during ischemia and reperfusion. […]
Rat hearts were first perfused for 10 min with KH buffer and then for another 10 min with the same buffer containing TRIAD (S2) prepared as described above (section 2.2), until equilibration of cardiodynamic variables was achieved. […] Left ventricular pressure and epicardial ECG were continuously monitored before and during ischemia and reperfusion. […]
Arrhythmia were defined according to the Lambeth convention (Walker et al., 1988). ECG recordings were analyzed for the incidence of irreversible ventricular fibrillation (IVF) and for the time of normal sinus. […]

Where two headings read alike, the source gives them in different places.

With Albumin [reference compound], in series [1], the “concentrations ensuring good antioxidative activity in vitro” value was 260 µM.
Consider Ceruloplasmin [CP], for which the cardioprotective concentrations result with isolated rat hearts is given as “up to 2 μM”. In addition, the cardiotoxic concentration in the series with isolated rat hearts is not below 4 µM; in the series on isolated rat hearts (listed as Ceruloplasmin), 4 µM. Besides, the electrophysiological effect entry in series [2] was “prolongation of Effective Refractory Period (ERP) and of the action potential (AP)”. Besides, the “concentrations ensuring good antioxidative activity in vitro” value in series [1] is 2 to 15 µM. For the same substance, in series [1] (in vitro, β-phycocyanin indicator), the “scavenging capacity compared with other antioxidants” value is “better scavenging capacity than SOD and than deferoxamine”. Moreover, the “incidence of reperfusion-induced irreversible ventricular fibrillation (IVF)” value in series [3] (isolated rat heart, 10 min regional ischemia then reperfusion, control 100%) was 75%. The substance also returned a cardioprotection in series [3] (reduction of IVF incidence versus control (100%)) of 25%.
